Values after ≈ are worked out from the molar mass of the structure shown. Like-named read-outs stand apart in the source and are kept apart here.
Experiments:
[1] = pH and heat stability of trityl ester of antibiotic PS-5; assay type: physicochemical; details: for remaining at 0.5 h: phosphate buffer, read-out: Residual activity
Method: The trityl ester of antibiotic PS-5 was dissolved in one volume of methanol and then diluted with 9 volumes of distilled water as soon as possible to provide a solution of 125 CCU/ml. A tenth molar dipotassium phosphate solution was adjusted with 5 N phosphoric acid or 5 N sodium hydroxide to the indicated pH's in the range of 3-9.
To one milliliter each of the phosphate buffers, one milliliter each of the said solution of the trityl ester of antibiotic PS-5 was added and, if necessary, the pH value of the mixture was readjusted with phosphoric acid or sodium hydroxyde to the desired pH value. […]
The control solution (pH 7.0) was kept in an ice bath for the experimental period. The residual antibiotic activity was assayed by the routine disc assay method with Comamonas terrigena B-996 as the test microorganism.

[2] = tested on: Staphylococcus aureus Smith; assay: In vivo activity of trityl ester in infected mice
Method: The in vivo activity of the tritylation product of the antibiotic PS-5 was measured in mice intraperitoneally infected with 5×10^3 cells/mouse of Staphylococcus aureus Smith. The trityl ester of the antibiotic PS-5 was subcutaneously injected just after infection.

[3] = tested on: Diplococcus pneumoniae Type III; assay: MIC by broth dilution (Table 8); assay type: cell-based; details: Streptococcus pneumoniae, 20 h, read-out: Minimum inhibitory concentration
Method: (§1) The MIC values of antibiotic PS-5 sodium salt were determined on various pathogenic microorganisms including resistant strains by the broth dilution method utilizing the BRAIN HEART INFUSION BROTH `Eiken` (EIKEN CHEMICAL CO., LTD.).
(§2) The antibiotic PS-5 sodium salt was dissolved in BRAIN HEART INFUSION BROTH `Eiken` (EIKEN CHEMICAL CO., LTD.) (pH 7.0) at concentration in the range of 5-50 μg/ml, from which appropriate dilution series were made in the same liquid medium. The microorganisms listed in Table 8 were cultivated for 18 hours in BRAIN HEART INFUSION BROTH `Eiken` at 28° C. and inoculated into the said dilution series of antibiotic PS-5 at a final inoculum size of 1×10^5 cells/ml. The cultures were allowed to stand at 35° C. for 20 hours, and then the growth of the microorganisms was read at each dilution of antibiotic PS-5. The minimum inhibitory concentration (MIC) represents the smallest concentration of the antibiotic PS-5 (sodium salt) where no propagation of the relevant microorganism was visually confirmed. As the controls, two known beta-lactam antibiotics, cephaloridine and cefoxitin were dissolved in brain heart infustion broth at pH 7.0 at concentrations ranging from 1 μg/ml to 100 μ g/ml and then diluted to make several dilution series in the above mentioned liquid medium. These samples were treated as described above for the MIC determinations.

[4] = tested on: Bacillus subtilis ATCC 6633; assay: MIC by broth dilution (Table 8); assay type: cell-based; details: ATCC6633, 20 h, read-out: Minimum inhibitory concentration
Method: as §1, §2

[5] = tested on: Staphylococcus aureus Smith; assay: MIC by broth dilution (Table 8); assay type: cell-based; details: 20 h, read-out: Minimum inhibitory concentration
Method: as §1, §2

[6] = tested on: Staphylococcus aureus EDA 209 P; assay: MIC by broth dilution (Table 8); assay type: cell-based; details: EDA209P, 20 h, read-out: Minimum inhibitory concentration
Method: as §1, §2

[7] = tested on: Staphylococcus aureus Bx-1633; assay: MIC by broth dilution (Table 8); assay type: cell-based; details: BX1633, 20 h, read-out: Minimum inhibitory concentration
Method: as §1, §2

[8] = tested on: Streptococcus pyogenes NY-5; assay: MIC by broth dilution (Table 8); assay type: cell-based; details: NY5, 20 h, read-out: Minimum inhibitory concentration
Method: as §1, §2

[9] = tested on: Alcaligenes faecalis B-326; assay: MIC by broth dilution (Table 8); assay type: cell-based; details: B326, 20 h, read-out: Minimum inhibitory concentration
Method: as §1
as §2, with “determinations. In addition to the MIC values of antibiotic PS-5, those of cephaloridine and cefoxitin are included for reference.” for “determinations.”

[10] = tested on: Staphylococcus aureus Russell; assay: MIC by broth dilution (Table 8); assay type: cell-based; details: 20 h, read-out: Minimum inhibitory concentration
Method: as §1
as §2, with “determinations. In addition to the MIC values of antibiotic PS-5, those of cephaloridine and cefoxitin are included for reference.” for “determinations.”

[11] = pH and heat stability of antibiotic PS-5 in aqueous solution; assay type: physicochemical; details: for remaining at 0.25 h: water, pH 9, at least 15 min of heating at 60° C., aqueous solution, around neutral to weakly alkaline pH below pH 9
[12] = Solubility of antibiotic PS-5; assay type: physicochemical

CCC1C(=O)N2C(C(=O)OC(c3ccccc3)(c3ccccc3)c3ccccc3)=C(SCCNC(C)=O)CC12 (single isomer, unassigned) [Trityl PS-5]
Loss of activity ([1]; aqueous solution, pH 7.5 for 90 minutes at 60° C.): no substantial loss of activity | remaining at 0.5 h ([1]; pH 3.0, 60° C. for 30 minutes, percent of control): 0% | remaining at 0.5 h ([1]; pH 4.0, 60° C. for 30 minutes): 0% | remaining at 0.5 h ([1]; pH 5.0, 60° C. for 30 minutes): 6.5% | remaining at 0.5 h ([1]; pH 6.0, 60° C. for 30 minutes): 79% | remaining at 0.5 h ([1]; pH 7.0, 60° C. for 30 minutes): 100% | remaining at 0.5 h ([1]; pH 8.0, 60° C. for 30 minutes): 100% | remaining at 0.5 h ([1]; pH 9.0, 60° C. for 30 minutes): 100% | 50% curative dose ([2]; male ddy mice, Staphylococcus aureus Smith, subcutaneous, in Comamonas-cephaloridine units): 27,540 CCU/kg | Therapeutic effect in infected mice ([2]; mice infected with a pathogenic Gram-positive bacteria): marked therapeutic effect | ED50 ([2]; sc, male ddy mice infected i.p. with 5×10^3 cells/mouse Staphylococcus aureus Smith, subcutaneously injected just after infection, read-out: 50% curative dose): 2.55 mg/kg

O=C(Cc1cccs1)N[C@@H]1C(=O)N2C(C(=O)[O-])=C(C[n+]3ccccc3)CS[C@H]12 [Cephaloridine, cephaloridine]
MIC [3]: 0.031 µg/mL (≈ 0.0746 µM) | MIC ([4]; Bacillus subtilis): 0.031 µg/mL (≈ 0.0746 µM) | MIC ([5]; Staphylococcus aureus): 0.031 µg/mL (≈ 0.0746 µM) | MIC ([6]; Staphylococcus aureus): 0.031 µg/mL (≈ 0.0746 µM) | MIC ([7]; Staphylococcus aureus): 0.031 µg/mL (≈ 0.0746 µM) | MIC ([8]; Streptococcus pyogenes): 0.008 µg/mL (≈ 0.0193 µM) | MIC ([9]; Alcaligenes faecalis): 6.25 µg/mL (≈ 15 µM) | MIC ([10]; Staphylococcus aureus): 0.125 µg/mL (≈ 0.301 µM)

CCC1C(=O)N2C(C(=O)O)=C(SCCNC(C)=O)CC12 (single isomer, unassigned) [Antibiotic PS-5]
remaining at 5 min ([11]; pH 3, pH 3.0 for 5 minutes at -17° C., read-out: Initial antibiotic activity still detected): ≥ 30% | remaining at 0.25 h ([11]; read-out: Antibiotic activity remaining): ≥ 50% | remaining at 0.25 h ([11]; usual value, read-out: Antibiotic activity remaining, usually): > 70% | MIC ([3]; Diplococcus pneumoniae Type III, 10% horse blood supplemented into the medium): 0.02 µg/mL (≈ 0.067 µM) | MIC ([4]; Bacillus subtilis ATCC 6633): 0.16 µg/mL (≈ 0.536 µM) | MIC ([5]; Staphylococcus aureus Smith, PS-5 as sodium salt): 0.31 µg/mL | MIC ([6]; Staphylococcus aureus EDA 209 P, PS-5 as sodium salt): 0.16 µg/mL | MIC ([7]; Staphylococcus aureus Bx-1633, PS-5 as sodium salt): 0.16 µg/mL | MIC ([8]; Streptococcus pyogenes NY-5, 10% horse blood supplemented into the medium): 0.08 µg/mL (≈ 0.268 µM) | MIC ([9]; Alcaligenes faecalis B-326): 0.78 µg/mL (≈ 2.61 µM) | MIC ([10]; Staphylococcus aureus Russell, PS-5 as sodium salt): 0.31 µg/mL | Solubility in ethyl acetate and benzene ([12]; at pH above 4): substantially insoluble | Solubility in water ([12]; water at pH 6 to 9): soluble
